Measured values taken from ChEMBL document CHEMBL3044792, “In vitro antioxidant properties and in vivo lowering blood lipid of Forsythia suspense leaves” (Med Chem Res, 2010).
Values after ≈ are worked out from the molar mass of the structure shown. Active and inactive are the calls of the source. The calls are words filed in the database; no cut-off is given here.

What was measured:
Type in all cases: functional
[1] = system: Radical scavenging activity; test: Antioxidant activity assessed as DPPH radical scavenging activity after 30 min
[2] = Antioxidant activity assessed as ABTS radical scavenging activity
[3] = Antioxidant activity assessed as ferric ion reducing activity measured as trolox equivalents by FRAP assay
Mus musculus [4] = test: Antioxidant activity in high cholesterol diet fed Mus musculus KM (mouse) assessed as MDA level in liver at 150 mg/kg, ig for 10 days (reference value: 13.6188 +/- 4.2522 nmol/ml); conditions: route intragastric
Mus musculus [5] = test: Hypolipidemic activity in high cholesterol diet fed Mus musculus KM (mouse) assessed as low density lipoprotein cholesterol at 150 mg/kg, ig for 10 days (reference value: 4.2972 +/- 1.1725 mmol/l); conditions: route intragastric
Mus musculus [6] = test: Hypolipidemic activity in high cholesterol diet fed Mus musculus KM (mouse) assessed as triglyceride level at 150 mg/kg, ig for 10 days (reference value: 0.9359 +/- 0.2817 mmol/l); conditions: route intragastric
Mus musculus [7] = test: Hypolipidemic activity in high cholesterol diet fed Mus musculus KM (mouse) assessed as high density lipoprotein cholesterol at 150 mg/kg, ig for 10 days (reference value: 2.6953+/- 0,58099 mmol/l); conditions: route intragastric
Mus musculus [8] = test: Hypolipidemic activity in high cholesterol diet fed Mus musculus KM (mouse) assessed as total cholesterol level at 150 mg/kg, ig for 10 days (reference value: 7.3219 +/- 1.00196 mmol/l); conditions: route intragastric
Mus musculus [9] = test: Hypolipidemic activity in high cholesterol diet fed Mus musculus KM (mouse) assessed as high density lipoprotein cholesterol at 70 mg/kg, ig for 10 days (reference value: 1.028 +/- 0.139 mmol/l); conditions: route intragastric
Mus musculus [10] = test: Antioxidant activity in high cholesterol diet fed Mus musculus KM (mouse) assessed as MDA level in liver at 70 mg/kg, ig for 10 days (reference value: 9.95 +/- 0.15 nmol/ml); conditions: route intragastric
Mus musculus [11] = test: Hypolipidemic activity in high cholesterol diet fed Mus musculus KM (mouse) assessed as low density lipoprotein cholesterol at 70 mg/kg, ig for 10 days (reference value: 3.386 +/- 0.958 mmol/l); conditions: route intragastric
Mus musculus [12] = test: Hypolipidemic activity in high cholesterol diet fed Mus musculus KM (mouse) assessed as total cholesterol level at 70 mg/kg, ig for 10 days (reference value: 4.402 +/- 0.8 mmol/l); conditions: route intragastric
Mus musculus [13] = test: Hypolipidemic activity in high cholesterol diet fed Mus musculus KM (mouse) assessed as triglyceride level at 70 mg/kg, ig for 10 days (reference value: 1.391 +/- 0.351 mmol/l); conditions: route intragastric

COc1cc([C@@H]2OC[C@@H]3[C@H]2CO[C@H]3c2ccc(O)c(OC)c2)ccc1O [(+)-PINORESINOL]
IC50 [1]: 8.66 µg/mL (≈ 24.2 µM)
IC50 [2]: 3.08 µg/mL (≈ 8.59 µM)
Activity [3]: 2580 µmol/g

Cc1cc(C(C)(C)C)c(O)c(C(C)(C)C)c1 [BUTYLATED HYDROXYTOLUENE]
IC50 [1]: 17.21 µg/mL (≈ 78.1 µM)
IC50 [2]: 6.04 µg/mL (≈ 27.4 µM)
Activity [3]: 1750 µmol/g

COc1cc([C@H]2OC[C@H]3[C@@H]2CO[C@H]3c2ccc(OC)c(OC)c2)ccc1O [PHILLYGENIN]
IC50 [1]: 15.51 µg/mL (≈ 41.6 µM)
Activity (Mus musculus [4]): 7.9321 nmol/mL
Activity (Mus musculus [5]): 3.1861 mmol/L
IC50 [2]: 3.58 µg/mL (≈ 9.61 µM)
Activity (Mus musculus [6]): 0.3249 mmol/L
Activity [3]: 2440 µmol/g
Activity (Mus musculus [7]): 2.4571 mmol/L
Activity (Mus musculus [8]): 7.2123 mmol/L

O=c1c(O)c(-c2ccc(O)c(O)c2)oc2cc(O)cc(O)c12 [QUERCETIN]
IC50 [1]: 1.03 µg/mL (≈ 3.41 µM)
Activity [3]: inactive

C[C@@H]1O[C@@H](OC[C@H]2O[C@@H](Oc3c(-c4ccc(O)c(O)c4)oc4cc(O)cc(O)c4c3=O)[C@H](O)[C@@H](O)[C@@H]2O)[C@H](O)[C@H](O)[C@H]1O [RUTIN]
IC50 [1]: 1.83 µg/mL (≈ 3 µM)
Activity (Mus musculus [9]): 1.422 mmol/L
Activity (Mus musculus [10]): 5.1 nmol/mL
IC50 [2]: 4.65 µg/mL (≈ 7.62 µM)
Activity (Mus musculus [11]): 2.639 mmol/L
Activity (Mus musculus [12]): 3.124 mmol/L
Activity [3]: inactive
Activity (Mus musculus [13]): 0.828 mmol/L

C[C@H]1[C@H](C)CC[C@]2(C(=O)O)CC[C@]3(C)C(=CC[C@@H]4[C@@]5(C)CC[C@H](O)C(C)(C)[C@@H]5CC[C@]43C)[C@H]12 [URSOLIC ACID]
IC50 [1]: Not Active
Activity (Mus musculus [4]): 7.326 nmol/mL
Activity (Mus musculus [5]): 1.5655 mmol/L
IC50 [2]: Not Active
Activity (Mus musculus [6]): 0.4322 mmol/L
Activity [3]: 13.6 µmol/g
Activity (Mus musculus [7]): 2.4373 mmol/L
Activity (Mus musculus [8]): 5.2196 mmol/L
